Experimental data taken from ChEMBL document CHEMBL1201862, “PubChem BioAssay data set” (2004).
The source made the active and inactive calls.

Assays:
[1] = molecular target: DNA dC->dU-editing enzyme APOBEC-3A (Homo sapiens, UniProt P31941); assay: SAR analysis of small molecule inhibitors of APOBEC3A DNA Deaminase via a fluorescence-based single-stranded DNA deaminase assay.; assay type: functional; settings: read-out: IC50_Mean
[2] = molecular target: DNA dC->dU-editing enzyme APOBEC-3G (Homo sapiens, UniProt Q9HC16); assay: APOBEC3G deaminase inhibitors, SAR follow-up, biochemical, fluorescence, single-stranded DNA substrate (AID 602136); assay type: functional; settings: read-out: IC50_Mean
DNA dC->dU-editing enzyme APOBEC-3G, sequence (Q9HC16 whole entry): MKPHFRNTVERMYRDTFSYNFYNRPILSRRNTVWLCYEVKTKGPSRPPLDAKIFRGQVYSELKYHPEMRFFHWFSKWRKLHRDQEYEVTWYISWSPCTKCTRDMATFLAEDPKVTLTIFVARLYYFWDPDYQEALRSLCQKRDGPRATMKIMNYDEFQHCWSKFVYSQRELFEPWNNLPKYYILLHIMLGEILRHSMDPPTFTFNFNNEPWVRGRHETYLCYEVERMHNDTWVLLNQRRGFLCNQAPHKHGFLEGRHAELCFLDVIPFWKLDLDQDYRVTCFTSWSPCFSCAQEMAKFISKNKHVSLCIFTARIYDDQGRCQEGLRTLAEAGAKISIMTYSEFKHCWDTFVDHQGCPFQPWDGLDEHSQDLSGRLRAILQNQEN

[3] = molecular target: Mitochondrial peptide methionine sulfoxide reductase (Bos taurus, UniProt P54149); assay: Absorbance-based biochemical high throughput dose response assay for activators of Methionine sulfoxide reductase A (MsrA).; assay type: functional
Mitochondrial peptide methionine sulfoxide reductase, sequence (P54149 whole entry): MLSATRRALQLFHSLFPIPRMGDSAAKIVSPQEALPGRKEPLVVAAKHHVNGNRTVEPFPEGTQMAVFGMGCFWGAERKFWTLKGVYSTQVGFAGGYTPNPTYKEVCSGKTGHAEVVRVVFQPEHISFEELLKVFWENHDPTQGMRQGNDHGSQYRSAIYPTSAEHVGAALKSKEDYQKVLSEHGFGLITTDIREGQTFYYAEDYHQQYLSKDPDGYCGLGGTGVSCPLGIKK

[4] = THP-1 cell cytotoxicity, dose response, cytotoxicity control for Vif-APOBEC3G degradation inhibitor project, THP-1 cells (AID 1117359); assay type: functional; settings: Human immunodeficiency virus 1, THP-1
[5] = molecular target: T1, Low molecular weight phosphotyrosine protein phosphatase (Homo sapiens, UniProt P24666); assay type: functional; settings: read-out: IC50_Mean
T1 sequence (P24666 whole entry): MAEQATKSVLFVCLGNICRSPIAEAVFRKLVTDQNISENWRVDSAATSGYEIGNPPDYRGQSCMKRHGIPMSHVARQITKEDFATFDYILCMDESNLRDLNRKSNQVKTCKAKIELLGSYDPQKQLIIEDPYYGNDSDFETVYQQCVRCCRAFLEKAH

[6] = molecular target: T1, Low molecular weight phosphotyrosine protein phosphatase; assay type: functional; settings: read-out: IC50_Mean; remark: listed apart in the source
[7] = ARNT/TACC3 interaction disruptors, potency, confirmation, biochemical, AlphaScreen, cherry-picked samples (AID 651703); assay type: functional, Homo sapiens;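 also: His-tagged ARNT PAS-B domain paired with GST-TACC3 E629A dimer coactivator fragment; potency of inhibitors that break up the complex and lower AlphaScreen signal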
[8] = molecular target: T2, Heat shock factor protein 1 (Mus musculus, UniProt P38532); assay: inhibition of MG132-induced HSE-luciferase signal, confirmation, cell-based, NIH3T3, luminescence, dose retest (AID 2382); assay type: functional;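 also: NIH3T3 fibroblasts with HSF1-driven luciferase reporter stressed by proteasome inhibitor MG132; luminescence from HSF1-driven luciferase expression after 8 hours of MG132 stress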
T2 sequence (P38532 whole entry): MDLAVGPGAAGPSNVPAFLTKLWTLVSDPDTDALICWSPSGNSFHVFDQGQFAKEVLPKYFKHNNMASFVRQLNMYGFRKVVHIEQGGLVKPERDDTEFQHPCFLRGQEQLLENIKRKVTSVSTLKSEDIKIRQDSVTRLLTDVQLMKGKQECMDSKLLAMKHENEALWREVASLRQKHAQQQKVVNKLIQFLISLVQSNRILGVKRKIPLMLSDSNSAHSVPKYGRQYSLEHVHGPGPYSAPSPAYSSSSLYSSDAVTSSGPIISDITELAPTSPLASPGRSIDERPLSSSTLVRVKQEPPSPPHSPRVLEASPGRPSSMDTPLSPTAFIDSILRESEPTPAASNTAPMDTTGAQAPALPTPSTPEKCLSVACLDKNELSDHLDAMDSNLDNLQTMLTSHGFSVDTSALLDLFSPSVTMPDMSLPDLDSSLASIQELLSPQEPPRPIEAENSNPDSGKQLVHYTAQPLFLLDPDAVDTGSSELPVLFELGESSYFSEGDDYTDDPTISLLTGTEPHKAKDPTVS

[9] = AlphaScreen signal interference compounds, dose response, artefact control for ARNT-TACC3 interaction inhibitor project, biochemical, luminescence, cherry-pick (AID 651705); assay type: functional;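 also: AlphaScreen bead proximity signal that flags compounds interfering with the detection technology; potency reflects signal decrease which marks the compound as an assay artifact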
[10] = molecular target: Ras and Rab interactor 1/Tyrosine-protein kinase ABL1 (Homo sapiens, UniProt P00519+Q13671); assay type: functional;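 also: biochemical TR-FRET dose-response test measuring inhibition of binding between Rin1 and Abl proteins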
Ras and Rab interactor 1/Tyrosine-protein kinase ABL1, sequence (P00519 whole entry): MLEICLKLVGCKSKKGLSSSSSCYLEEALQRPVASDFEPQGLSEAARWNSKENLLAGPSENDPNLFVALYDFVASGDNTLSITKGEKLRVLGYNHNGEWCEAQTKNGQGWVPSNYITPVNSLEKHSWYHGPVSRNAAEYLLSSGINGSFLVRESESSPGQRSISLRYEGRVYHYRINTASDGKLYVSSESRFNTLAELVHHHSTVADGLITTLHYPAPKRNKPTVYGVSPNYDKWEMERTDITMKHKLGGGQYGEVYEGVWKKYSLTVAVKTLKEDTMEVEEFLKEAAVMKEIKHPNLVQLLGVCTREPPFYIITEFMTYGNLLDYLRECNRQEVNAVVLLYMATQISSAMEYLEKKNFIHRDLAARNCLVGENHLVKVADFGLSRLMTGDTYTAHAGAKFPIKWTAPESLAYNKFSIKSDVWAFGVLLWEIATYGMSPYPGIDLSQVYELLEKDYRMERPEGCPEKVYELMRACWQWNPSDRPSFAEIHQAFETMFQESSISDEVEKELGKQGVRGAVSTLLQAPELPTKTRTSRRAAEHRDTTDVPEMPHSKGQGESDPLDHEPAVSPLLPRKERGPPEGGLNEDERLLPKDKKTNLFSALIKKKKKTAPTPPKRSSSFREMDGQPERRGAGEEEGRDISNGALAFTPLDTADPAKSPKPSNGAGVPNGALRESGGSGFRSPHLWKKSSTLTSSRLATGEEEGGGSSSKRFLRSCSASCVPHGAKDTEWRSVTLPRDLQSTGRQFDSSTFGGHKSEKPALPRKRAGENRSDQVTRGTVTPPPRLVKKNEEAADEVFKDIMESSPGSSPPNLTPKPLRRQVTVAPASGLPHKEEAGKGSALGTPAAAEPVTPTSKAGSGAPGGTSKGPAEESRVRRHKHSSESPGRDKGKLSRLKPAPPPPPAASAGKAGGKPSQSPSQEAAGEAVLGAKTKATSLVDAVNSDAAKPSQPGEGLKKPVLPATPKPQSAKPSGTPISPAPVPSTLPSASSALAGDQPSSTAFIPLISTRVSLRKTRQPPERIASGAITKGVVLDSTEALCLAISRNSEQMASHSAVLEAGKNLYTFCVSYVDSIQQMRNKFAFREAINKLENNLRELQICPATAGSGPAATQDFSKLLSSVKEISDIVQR
Ras and Rab interactor 1/Tyrosine-protein kinase ABL1, sequence (Q13671 whole entry): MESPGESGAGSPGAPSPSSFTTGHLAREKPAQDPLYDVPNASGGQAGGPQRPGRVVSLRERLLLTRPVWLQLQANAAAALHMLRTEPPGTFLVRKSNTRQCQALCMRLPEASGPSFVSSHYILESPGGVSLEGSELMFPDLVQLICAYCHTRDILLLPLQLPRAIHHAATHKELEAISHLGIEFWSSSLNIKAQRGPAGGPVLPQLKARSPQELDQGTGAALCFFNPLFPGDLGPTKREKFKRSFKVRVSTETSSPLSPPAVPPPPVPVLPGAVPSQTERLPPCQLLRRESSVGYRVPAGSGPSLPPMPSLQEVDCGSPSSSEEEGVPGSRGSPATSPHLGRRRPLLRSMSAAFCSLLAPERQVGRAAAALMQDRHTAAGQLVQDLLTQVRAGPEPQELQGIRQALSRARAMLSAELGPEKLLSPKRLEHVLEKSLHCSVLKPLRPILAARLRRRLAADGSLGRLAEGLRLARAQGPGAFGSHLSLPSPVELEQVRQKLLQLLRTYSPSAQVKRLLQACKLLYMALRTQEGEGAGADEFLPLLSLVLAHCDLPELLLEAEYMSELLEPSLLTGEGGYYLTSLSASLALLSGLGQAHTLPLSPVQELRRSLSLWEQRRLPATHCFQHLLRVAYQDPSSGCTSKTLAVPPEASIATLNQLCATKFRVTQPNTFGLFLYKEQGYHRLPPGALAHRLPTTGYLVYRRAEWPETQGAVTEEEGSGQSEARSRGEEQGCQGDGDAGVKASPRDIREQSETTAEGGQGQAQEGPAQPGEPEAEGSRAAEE

[11] = molecular target: T3, Small ubiquitin-related modifier 1 (Homo sapiens, UniProt P63165); assay: inhibitors of SUMO1 partner interactions, dose response, biochemical, FRET (AID 624383); assay type: functional; settings: read-out: IC50_Mean
T3 sequence (P63165 whole entry, the tested form may be a part): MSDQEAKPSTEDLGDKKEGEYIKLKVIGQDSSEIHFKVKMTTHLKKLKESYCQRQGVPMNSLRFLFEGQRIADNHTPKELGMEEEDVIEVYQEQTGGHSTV

[12] = molecular target: T4, Carboxy-terminal domain RNA polymerase II polypeptide A small phosphatase 1 (Homo sapiens, UniProt Q9GZU7); assay: inhibitors of CTDSP1, concentration-response testing, biochemical assay, absorbance-based, actives from ultra-high-throughput screening (AID 540297); assay type: functional
T4 sequence (Q9GZU7 whole entry): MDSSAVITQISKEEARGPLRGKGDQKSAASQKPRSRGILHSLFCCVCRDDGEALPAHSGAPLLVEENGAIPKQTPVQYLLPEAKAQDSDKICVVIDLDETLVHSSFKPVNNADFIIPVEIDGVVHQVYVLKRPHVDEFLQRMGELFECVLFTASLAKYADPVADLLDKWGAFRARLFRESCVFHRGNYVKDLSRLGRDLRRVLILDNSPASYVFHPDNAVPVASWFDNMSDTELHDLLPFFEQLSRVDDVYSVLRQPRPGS

[13] = molecular target: T3, Small ubiquitin-related modifier 1; assay: inhibitors of SUMO1 peptide binding, dose response, biochemical, fluorescence polarization, uHTS hits (AID 624382); assay type: functional; settings: read-out: IC50_Mean
[14] = molecular target: T5, RNA-binding protein pos-1 (Caenorhabditis elegans, UniProt G5EF15); assay: inhibitors of POS-1/mex-3 RNA binding, dose response, biochemical, fluorescence polarization (AID 1964);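 also: purified POS-1 fused to maltose binding protein made in E. coli; potency of compounds blocking POS-1 binding to fluorescent RNA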
T5 sequence (G5EF15 whole entry): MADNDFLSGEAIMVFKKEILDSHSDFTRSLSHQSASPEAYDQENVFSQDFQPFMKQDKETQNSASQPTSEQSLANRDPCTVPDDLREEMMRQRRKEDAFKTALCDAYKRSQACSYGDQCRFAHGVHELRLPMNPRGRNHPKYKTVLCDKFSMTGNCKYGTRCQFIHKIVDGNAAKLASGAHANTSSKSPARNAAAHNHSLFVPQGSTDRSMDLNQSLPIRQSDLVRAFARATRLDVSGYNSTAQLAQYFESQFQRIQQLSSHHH

[15] = molecular target: T6, Zinc finger protein mex-5 (Caenorhabditis elegans, UniProt Q9XUB2); assay: MEX-5/TCR-2 RNA interaction inhibitors, dose response, biochemical, C. elegans, fluorescence polarization (AID 1960)
T6 sequence (Q9XUB2 whole entry): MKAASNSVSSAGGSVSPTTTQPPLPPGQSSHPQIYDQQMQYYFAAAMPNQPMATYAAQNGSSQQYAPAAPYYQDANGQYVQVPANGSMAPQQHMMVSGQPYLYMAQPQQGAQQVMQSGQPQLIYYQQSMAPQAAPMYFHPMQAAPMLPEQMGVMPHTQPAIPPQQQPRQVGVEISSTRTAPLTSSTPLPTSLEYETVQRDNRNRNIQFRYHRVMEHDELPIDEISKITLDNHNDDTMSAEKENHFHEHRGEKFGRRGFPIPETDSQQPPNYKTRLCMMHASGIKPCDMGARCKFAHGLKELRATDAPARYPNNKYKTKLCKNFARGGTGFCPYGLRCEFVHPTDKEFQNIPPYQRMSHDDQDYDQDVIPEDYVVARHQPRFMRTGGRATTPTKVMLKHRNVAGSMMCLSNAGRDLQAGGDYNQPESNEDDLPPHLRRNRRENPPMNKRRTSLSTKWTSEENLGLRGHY

DNA dC->dU-editing enzyme APOBEC-3A, sequence (P31941 whole entry): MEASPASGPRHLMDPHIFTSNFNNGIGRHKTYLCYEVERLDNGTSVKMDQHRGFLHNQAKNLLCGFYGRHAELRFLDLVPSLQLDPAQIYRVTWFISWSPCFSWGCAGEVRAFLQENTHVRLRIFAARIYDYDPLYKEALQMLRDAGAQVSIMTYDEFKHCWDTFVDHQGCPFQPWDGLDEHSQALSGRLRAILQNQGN

SMILES: O=C(CSc1nnc2scc(-c3ccccc3)n12)Nc1ccccc1F
- IC50 [1]: > 99 µM (inactive)
- IC50 [2]: > 99 µM (inactive)

SMILES: CCCn1c(=O)c2ccccc2n2c(SCC(=O)NCc3ccccc3)nnc12
- IC50 [1]: > 99 µM (inactive)
- IC50 [2]: > 99 µM (inactive)

SMILES: O=[N+]([O-])c1cc(Br)c(O)c(/C=N/c2ccc(N3CCOCC3)cc2)c1
- EC50 [3]: > 104 µM (inactive)
- CC50 [4]: > 40 µM (active)

SMILES: CCOc1ccccc1Nc1nc(Cl)nc(Nc2ccccc2OCC)n1
- IC50 [1]: > 99 µM (inactive)
- IC50 [2]: > 99 µM (inactive)

SMILES: COCCNc1nc(NCc2ccc(NC(C)=O)cc2)c2sccc2n1
- IC50 [5]: 17.5 µM (active)
- IC50 [6]: 15.4 µM (active)

SMILES: O=C(CN(Cc1ccccc1Cl)S(=O)(=O)c1ccc(Cl)cc1)N/N=C/c1ccc(C(=O)O)cc1
- AC50 [7]: 78.3 µM (active)
- EC50 [8]: > 195 µM (not active)
- AC50 [9]: 84 µM (active)

SMILES: C[C@]12CC[C@H](O)C[C@@H]1CC(=O)[C@@H]1[C@@H]2CC[C@]2(C)C(=O)CC[C@@H]12
- IC50 [10]: 33.8 µM (inactive)

SMILES: C=CC1=C(C(=O)O)N2C(=O)[C@@H](NC(=O)/C(=N\O)c3csc(N)n3)[C@H]2SC1 (stereo in doubt)
- IC50 [5]: 19.6 µM (active)
- IC50 [11]: 6.25 µM (active)
- IC50 [6]: 21.5 µM (inactive)
- IC50 [12]: 4.48 µM (active)
- IC50 [13]: > 66.6 µM (inactive)
- EC50 [14]: 49.8 µM (active)
- EC50 [15]: 33.3 µM (active)
